Experimental data published in patent publication US20120202690A1, “HERBICIDAL COMPOUNDS” (SYNGENTA LIMITED, priority 2009, published 2012).

Experiments:
Format in all cases: in vivo
Setaria faberi (SETFA) [1] = assay: Post-emergence biological efficacy, glasshouse, 500 or 1000 g/ha, evaluated after 13 days (100=total damage to plant; 0=no damage to plant); settings: Setaria faberi, 312 h, rate 1,000 g/ha, read-out: Percentage damage caused to weed species, post-emergence, SETFA
Outline: (§1)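 Damage is scored on pot-grown plants, sown in standard soil and sprayed after emergence, that were held post-treatment in a glasshouse (24/16° C. day/night, 14 hours light, 65% humidity).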

[2] = tested on: Ipomoea hederaceae (IPOHE); assay: as above; settings: Ipomoea, 312 h, rate 1,000 g/ha, read-out: Percentage damage caused to weed species, post-emergence, IPOHE
Outline: as §1

Solanum nigrum (SOLNI) [3] = assay: as above; settings: Solanum nigrum, 312 h, rate 1,000 g/ha, read-out: Percentage damage caused to weed species, post-emergence, SOLNI
Outline: as §1

[4] = tested on: Echinochloa crusgaffi (ECHCG); assay: as above; settings: Echinochloa, 312 h, rate 1,000 g/ha, read-out: Percentage damage caused to weed species, post-emergence, ECHCG
Outline: as §1

[5] = tested on: Alopecurus myosuroides (ALOMY); assay: as above; settings: Alopecurus myosuroides, 312 h, rate 1,000 g/ha, read-out: Percentage damage caused to weed species, post-emergence, ALOMY
Outline: as §1

[6] = tested on: Amaranthus retroflexus (AMARE); assay: as above; settings: Amaranthus retroflexus, 312 h, rate 1,000 g/ha, read-out: Percentage damage caused to weed species, post-emergence, AMARE
Outline: as §1

Setaria faberi (SETFA) [7] = assay: Pre-emergence biological efficacy, glasshouse, 1000 g/ha, evaluated after 13 days (100=total damage to plant; 0=no damage to plant); settings: Setaria faberi, 312 h, rate 1,000 g/ha, read-out: Percentage damage caused to weed species, pre-emergence, SETFA
Outline: (§2)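 Standard soil in pots received the seeds. Growth took place in a glasshouse held at 24/16° C. day/night, 65% humidity and 14 h of light.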

[8] = tested on: Ipomoea hederaceae (IPOHE); assay: as above; settings: Ipomoea, 312 h, rate 1,000 g/ha, read-out: Percentage damage caused to weed species, pre-emergence, IPOHE
Outline: as §2

Solanum nigrum (SOLNI) [9] = assay: as above; settings: Solanum nigrum, 312 h, rate 1,000 g/ha, read-out: Percentage damage caused to weed species, pre-emergence, SOLNI
Outline: as §2

[10] = tested on: Echinochloa crus-galli (ECHCG); assay: as above; settings: Echinochloa crus-galli, 312 h, rate 1,000 g/ha, read-out: Percentage damage caused to weed species, pre-emergence, ECHCG
Outline: as §2

[11] = tested on: Alopecurus myosuroides (ALOMY); assay: as above; settings: Alopecurus myosuroides, 312 h, rate 1,000 g/ha, read-out: Percentage damage caused to weed species, pre-emergence, ALOMY
Outline: as §2

[12] = tested on: Amaranthus retroflexus (AMARE); assay: as above; settings: Amaranthus retroflexus, 312 h, rate 1,000 g/ha, read-out: Percentage damage caused to weed species, pre-emergence, AMARE
Outline: as §2

Row | SMILES | pest or weed control at 1000 g/ha (Setaria faberi (SETFA) [1]) [%] | pest or weed control at 1000 g/ha [2] [%] | pest or weed control at 1000 g/ha (Solanum nigrum (SOLNI) [3]) [%] | pest or weed control at 1000 g/ha [4] [%] | pest or weed control at 1000 g/ha [5] [%] | pest or weed control at 1000 g/ha [6] [%] | pest or weed control at 1000 g/ha (Setaria faberi (SETFA) [7]) [%] | pest or weed control at 1000 g/ha [8] [%] | pest or weed control at 1000 g/ha (Solanum nigrum (SOLNI) [9]) [%] | pest or weed control at 1000 g/ha [10] [%] | pest or weed control at 1000 g/ha [11] [%] | pest or weed control at 1000 g/ha [12] [%]
1 | COC(=O)c1nc(Cl)cc2[nH]cc(Cl)c12 [Compound 22-132, 3,6-dichloro-4-methoxycarbonyl-1H-pyrrolo[3,2-c]pyridine] | 0 | 50 | 60 | 0 | 0 | 50 | 0 | 40 | 10 | 0 | 0 | 0
2 | COC(=O)c1nc(-c2ccc(Cl)c(OC)c2F)nc2c1c(C)cn2C [Compound 2-64, 2-(4-Chloro-2-fluoro-3-methoxyphenyl)-5,7-dimethyl-4-methoxycarbonyl-7H-pyrrolo[2,3-d]pyrimidine] | 0 | 40 | 60 | 0 | 0 | 30 | 0 | 50 | 40 | 0 | 0 | 30
3 | COc1c(Cl)ccc(-c2nc(C(=O)O)c3c(C)cn(Cc4ccccc4[N+](=O)[O-])c3n2)c1F [Compound 8-63, 4-Carboxy-2-(4-chloro-2-fluoro-3-methoxyphenyl)-5-methyl-7-(2-nitrophenyl-methyl)-7H-pyrrolo[2 ,3-d]pyrimidine] | 20 | 60 | 80 | 50 | 10 | 70 | 0 | 30 | 40 | 0 | 0 | 10
4 | COc1c(Cl)ccc(-c2nc(C(=O)O)c3c(C)cn(Cc4ccccc4)c3n2)c1F [Compound 6-63, 7-Benzyl-4-carboxy-2-(4-chloro-2-fluoro-3-methoxyphenyl)-5-methyl-7H-pyrrolo[2,3-d]pyrimidine] | 50 | 60 | 70 | 40 | 10 | 80 | 0 | 0 | 0 | 0 | 0 | 0
5 | COC(=O)c1nc(-c2ccc(Cl)c(OC)c2F)nc2[nH]cc(C)c12 [Compound 1-64, 2-(4-chloro-2-fluoro-3-methoxyphenyl)-4-methoxycarbonyl-5-methyl-7H-pyrrolo[2,3-d]pyrimidine] | 70 | 70 | 80 | 70 | 20 | 100 | 10 | 100 | 70 | 30 | 20 | 100
6 | C=CCOC(=O)c1nc(-c2ccc(Cl)c(OC)c2F)cc2[nH]cc(C)c12 [Compound 22-80, 6-(4-Chloro-2-fluoro-3-methoxyphenyl)-3-methyl-4-(prop-2-enyloxycarbonyl)-1H-pyrrolo[3,2-c]pyridine] | 20 | 50 | 90 | 10 | 10 | 70 | 20 | 50 | 60 | 20 | 20 | 40
7 | CCCCOCC(C)OC(=O)c1nc(-c2ccc(Cl)c(OC)c2F)cc2[nH]cc(C)c12 (stereo not drawn) [Compound 22-84, 4-[(1-n-Butoxy)-prop-2-yloxycarbonyl]-6-(4-chloro-2-fluoro-3-methoxyphenyl)-3-methyl-1H-pyrrolo[3,2-c]pyridine] | 30 | 40 | 90 | 20 | 20 | 80 | 10 | 80 | 70 | 20 | 20 | 40
8 | COC(=O)c1nc(-c2ccc(Cl)c(F)c2)nc2c1ccn2Cc1ccccc1[N+](=O)[O-] [Compound 8-18, 2-(4-Chloro-3-fluorophenyl)-4-methoxycarbonyl-7-(2-nitrophenyl-methyl)-7H-pyrrolo[2,3-d]pyrimidine] | 0 | 20 | 30 | 0 | 0 | 0 | 0 | 0 | 0 | 0 | 0 | 0
9 | COC(=O)c1nc(-c2ccc(Cl)c(F)c2)cc2[nH]cc(C)c12 [Compound 22-20, 6-(4-Chloro-3-fluorophenyl)-4-methoxycarbonyl-3-methyl-1H-pyrrolo[3,2-c]pyridine] | 60 | 70 | 80 | 70 | 50 | 100 | 0 | 80 | 60 | 20 | 20 | 100
10 | COC(=O)c1nc(-c2ccc(Cl)c(F)c2)nc2c1ccn2CC1CC1 [Compound 5-18, 2-(4-Chloro-3-fluorophenyl)-7-cyclopropylmethyl-4-methoxycarbonyl-7H-pyrrolo[2,3-d]pyrimidine] | 0 | 0 | 20 | 0 | 0 | 0 | 0 | 0 | 0 | 0 | 0 | 0
11 | COC(=O)c1nc(C2CC2)nc2c1NC(c1ccccc1)C(c1ccccc1)N2 (stereo not drawn) [Compound 91-44, 2-cyclopropyl-6,7-diphenyl-4-methoxycarbonyl-5,6,7,8-tetrahydropteridine] | 50 | 60 | 90 | 50 | 20 | 70 | 0 | 20 | 30 | 10 | 30 | 70
12 | COc1ccc(Cn2cc(C)c3c(C(=O)O)nc(-c4ccc(Cl)c(OC)c4F)nc32)cc1 [Compound 10-63, 4-Carboxy-2-(4-chloro-2-fluoro-3-methoxyphenyl)-7-(4-methoxyphenyl-methyl)-5-methyl-7H-pyrrolo[2,3-d]pyrimidine] | 0 | 20 | 20 | 0 | 0 | 10 | 0 | 0 | 0 | 0 | 0 | 0
